According to patent publication US9718782B2, “TrkA kinase inhibitors, compositions and methods thereof” (MERCK SHARP & DOHME CORP, priority 2013, dated 2017):

Molecular target: T1, TrkA receptor (Homo sapiens, UniProt P04629)
T1 construct: host or cells: U2OS (PathHunter, 'TrkA p75' cells)
Assay: DiscoverX PathHunter TrkA functional assay (NGF-stimulated U2OS cells)
Type: cell-based
Settings: U2OS cells expressing TrkA-Prolink fusion and Shc1-EA; compound 1 hour, then EC80 NGF 3 hours; luminescence
Protocol: TrkA functional activity was measured using a DiscoverX PathHunter assay. In this assay, U2OS cells are express TrkA receptor as a fusion with the weakly complementing fragment of B-galactosidase, which DiscoverX calls “Prolink (PK)”; additionally, Shcl is fused with a larger fragment, which is called “Enzyme Acceptor (EA)”. Activation of the TrkA receptor, upon NGF addition, results in the kinase domain being phosphorylated, resulting in subsequent recruitment of Shcl-EA protein. That recruitment results in an active B-galactosidase enzyme that is detected by addition of a chemiluminescent substrate.
All reagents were purchased from DiscoverX, except for the receptor agonists (NGF, BDNF, NT3) which were purchased from Peprotech. Cells were expanded and frozen into cryovials (TrkA p75 @passage 13, 1.5×10^7 cells/vial; TrkC p75 @passage 11, 1.5×10^7 cells/vial in InVitrogen Recovery Cell Freezing media), and stored in the vapor phase of liquid nitrogen, and thawed immediately before use. Thawed cells were added to a 384-well plate (BD Falcon 384-well white/clear, TC surface 120 uL assay plates (353963), 20 uL of 0.375e6 cells/mL=>7500 cells/well), and allowed to incubate overnight. Compound (10 mM starting dose: 202.5 nL compound yielding 0.81% DMSO final in total assay volume and starting doses 81 uM) was added the following morning and allowed to incubate on cells for 1 hour. Then, 5 uL EC80 of agonist (NGF for TrkA; BDNF for TrkB; NT3 for TrkC) was added and allowed to incubate for 3 hours at room temperature. DiscoverX PathHunter detection reagent is added (12 uL to plate and components diluted in parts as per kit instructions) and the plate is further incubated for 1 hour in the dark. The plate is read via luminescence on the Perkin Elmer Envision.

T1 sequence (P04629 33-796): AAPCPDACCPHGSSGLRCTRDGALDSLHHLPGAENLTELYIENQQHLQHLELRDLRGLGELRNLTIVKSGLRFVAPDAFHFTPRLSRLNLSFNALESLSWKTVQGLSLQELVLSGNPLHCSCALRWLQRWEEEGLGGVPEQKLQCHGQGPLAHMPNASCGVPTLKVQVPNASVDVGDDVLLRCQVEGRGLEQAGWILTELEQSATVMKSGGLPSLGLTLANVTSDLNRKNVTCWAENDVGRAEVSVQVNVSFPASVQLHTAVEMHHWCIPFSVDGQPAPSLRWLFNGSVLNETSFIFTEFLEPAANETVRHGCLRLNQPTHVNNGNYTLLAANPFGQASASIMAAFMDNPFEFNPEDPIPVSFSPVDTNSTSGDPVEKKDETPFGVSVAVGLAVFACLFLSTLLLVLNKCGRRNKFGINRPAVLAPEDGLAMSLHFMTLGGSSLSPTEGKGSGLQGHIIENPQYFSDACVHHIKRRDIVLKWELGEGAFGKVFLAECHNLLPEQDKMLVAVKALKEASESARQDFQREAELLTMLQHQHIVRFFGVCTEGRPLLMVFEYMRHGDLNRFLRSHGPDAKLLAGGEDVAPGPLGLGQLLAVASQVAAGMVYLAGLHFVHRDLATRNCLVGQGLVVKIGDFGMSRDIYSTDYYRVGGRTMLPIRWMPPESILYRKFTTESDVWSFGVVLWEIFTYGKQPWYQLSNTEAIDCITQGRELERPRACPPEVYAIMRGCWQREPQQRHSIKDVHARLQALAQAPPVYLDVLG

| SMILES | IC50 |
| --- | --- |
| O=C(Nc1cccc(-c2nnc3n2CCC3)c1)NC1c2ccccc2-c2ccccc21 [Compound 43, 1-[3-(6,7-dihydro-5H-pyrrolo[2,1-c] [1,2,4]triazol-3-yl)phenyl]-3-(9H-fluoren-9-yl)urea] | 130 nM |
| CCn1cnnc1-c1cccc(NC(=O)NC2c3ccccc3-c3ccccc32)c1 [Compound 44, 1-[3-(4-ethyl-4H-1,2,4-triazol-3-yl)phenyl]-3-(9H-fluoren-9-yl)urea] | 410 nM |
| O=C(Nc1cccc(-c2nc(C3CC3)n[nH]2)c1)NC1c2ccccc2-c2ccccc21 [Compound 45, 1-[3-(3-cyclopropyl-1H-1,2,4-triazol-5-yl)phenyl]-3-(9H-fluoren-9-yl)urea] | 1400 nM |
| Cc1nnc(-c2cccc(NC(=O)NC3c4ccccc4-c4ccccc43)c2)o1 [Compound 46, 1-(9H-fluoren-9-yl)-3-[3-(5-methyl-1,3,4-oxadiazol-2-yl)phenyl]urea] | 660 nM |
| Cc1nnc(-c2cccc(NC(=O)NC3c4ccccc4-c4ccccc43)c2)s1 [Compound 47, 1-(9H-fluoren-9-yl)-3-[3-(5-methyl-1,3,4-thiadiazol-2-yl)phenyl]urea] | 970 nM |
| O=C(Nc1cccc(-c2nnc[nH]2)c1)NC1c2ccccc2-c2ccccc21 [Compound 48, 1-(9H-fluoren-9-yl)-3-[3-(4H-1,2,4-triazol-3-yl)phenyl]urea] | 360 nM |
| O=C(Nc1cccc(-c2nnco2)c1)NC1c2ccccc2-c2ccccc21 [Compound 49, 1-(9H-fluoren-9-yl)-3-[3-(1,3,4-oxadiazol-2-yl)phenyl]urea] | 2800 nM |
| O=C(Nc1cccnc1-c1ccncc1)NC1c2ccccc2-c2ccccc21 [Compound 50, 1-(2,4′-bipyridin-3-yl)-3-(9H-fluoren-9-yl)urea] | 880 nM |
| O=C(Nc1cccnc1-c1cccnc1)NC1c2ccccc2-c2ccccc21 [Compound 51, 1-(2,3′-bipyridin-3-yl)-3-(9H-fluoren-9-yl)urea] | 3000 nM |
| O=C(Nc1cccnc1-c1ccc(F)cc1)NC1c2ccccc2-c2ccccc21 [Compound 52, 1-(9H-fluoren-9-yl)-3-[2-(4-fluorophenyl)pyridin-3-yl]urea] | 100 nM |
| O=C(Nc1cccnc1-c1ccnc(F)c1)NC1c2ccccc2-c2ccccc21 [Compound 53, 1-(9H-fluoren-9-yl)-3-(2′-fluoro-2,4′-bipyridin-3-yl)urea] | 540 nM |
| O=C(Nc1cccnc1-c1ccco1)NC1c2ccccc2-c2ccccc21 [Compound 54, 1-(9H-fluoren-9-yl)-3-(2-furan-2-ylpyridin-3-yl)urea] | 2800 nM |
| O=C(Nc1cccnc1-c1ccoc1)NC1c2ccccc2-c2ccccc21 [Compound 55, 1-(9H-fluoren-9-yl)-3-(2-furan-3-ylpyridin-3-yl)urea] | 390 nM |
| Cn1nc(-c2ccccc2)cc1NC(=O)NC1c2ccccc2-c2ccccc21 [Compound 56, 1-(9H-fluoren-9-yl)-3-(1-methyl-3-phenyl-1H-pyrazol-5-yl)urea] | 410 nM |
| O=C(Nc1cccc(-n2cnnn2)c1)NC1c2ccccc2-c2ccccc21 [Compound 57, 1-(9H-fluoren-9-yl)-3-[3-(1H-tetrazol-1-yl)phenyl]urea] | 1300 nM |
| Cc1nc(-c2ccccc2)c(NC(=O)NC2c3ccccc3-c3ccccc32)n1C [Compound 58, 1-(1,2-dimethyl-4-phenyl-1H-imidazol-5-yl)-3-(9H-fluoren-9-yl)urea] | 190 nM |
| Cc1nc(-c2ccccc2)c(NC(=O)NC2c3ccccc3-c3ccccc32)[nH]1 [Compound 59, 1-(9H-fluoren-9-yl)-3-(2-methyl-4-phenyl-1H-imidazol-5-yl)urea] | 500 nM |
| CCc1nnc(-c2cccc(NC(=O)NC3c4ccccc4-c4ccccc43)c2)o1 [Compound 60, 1-[3-(5-ethyl-1,3,4-oxadiazol-2-yl)phenyl]-3-(9H-fluoren-9-yl)urea] | 560 nM |
| CN(C)C(=O)c1cccc(NC(=O)NC2c3ccccc3-c3ccccc32)c1 [Compound 61, 3-[(9H-fluoren-9-ylcarbamoyl)amino]-N,N-dimethylbenzamide] | 670 nM |
| Cc1cnc(-c2cccc(NC(=O)NC3c4ccccc4-c4ccccc43)c2)o1 [Compound 62, 1-(9H-fluoren-9-yl)-3-[3-(5-methyl-1,3-oxazol-2-yl)phenyl]urea] | 1300 nM |
| Cn1ccnc1-c1cccc(NC(=O)NC2c3ccccc3-c3ccccc32)c1 [Compound 63, 1-(9H-fluoren-9-yl)-3-[3-(l-methyl-1H-imidazol-2-yl)phenyl]urea] | 96 nM |

| SMILES | IC50 |
| --- | --- |
| Cn1nnnc1-c1cccc(NC(=O)NC2c3ccccc3-c3ccccc32)c1 [Compound 64, 1-(9H-fluoren-9-yl)-3-[3-(l-methyl-1H-tetrazol-5-yl)phenyl]urea] | 330 nM |
| Cc1nc(-c2cccc(NC(=O)NC3c4ccccc4-c4ccccc43)c2)oc1C [Compound 65, 1-[3-(4,5-dimethyl-1,3-oxazol-2-yl)phenyl]-3-(9H-fluoren-9-yl)urea] | 310 nM |
| O=C(Nc1cccnc1)NC1c2ccccc2-c2ccccc21 [Compound 66, 1-(9H-fluoren-9-yl)-3-pyridin-3-ylurea] | 3500 nM |
| O=C(Nc1ncnn1-c1ccccc1)NC1c2ccccc2-c2ccccc21 [Compound 67, 1-(9H-fluoren-9-yl)-3-(1-phenyl-1H-1,2,4-triazol-5-yl)urea] | 4800 nM |
| O=C(Nc1c(-c2ccco2)nc2ccccn12)NC1c2ccccc2-c2ccccc21 [Compound 68, 1-(9H-fluoren-9-yl)-3-(2-furan-2-ylimidazo[1,2-a]pyridin-3-yl)urea] | 970 nM |
| O=C(Nc1c(-c2ccncc2)nc2ccccn12)NC1c2ccccc2-c2ccccc21 [Compound 69, 1-(9H-fluoren-9-yl)-3-(2-pyridin-4-ylimidazo[1,2-a]pyridin-3-yl)urea] | 770 nM |
| O=C(Nc1conc1-c1ccccc1)NC1c2ccccc2-c2ccccc21 [Compound 70, 1-(9H-fluoren-9-yl)-3-(3-phenylisoxazol-4-yl)urea] | 2200 nM |
| Cc1cnc(-c2ccccc2)c(NC(=O)NC2c3ccccc3-c3ccccc32)c1 [Compound 71, 1-(9H-fluoren-9-yl)-3-(5-methyl-2-phenylpyridin-3-yl)urea] | 120 nM |
| O=C(Nc1cncc(-c2cccnc2)c1)NC1c2ccccc2-c2ccccc21 [Compound 72, 1-(3,3′-bipyridin-5-yl)-3-(9H-fluoren-9-yl)urea] | 1400 nM |
| Cn1nccc1-c1cncc(NC(=O)NC2c3ccccc3-c3ccccc32)c1 [Compound 73, 1-(9H-fluoren-9-yl)-3-[5-(1-methyl-1H-pyrazol-5-yl)pyridin-3-yl]urea] | 2800 nM |
| Cn1ncnc1-c1cncc(NC(=O)NC2c3ccccc3-c3ccccc32)c1 [Compound 74, 1-(9H-fluoren-9-yl)-3-[5-(1-methyl-1H-1,2,4-triazol-5-yl)pyridin-3-yl]urea] | 990 nM |
| O=C(Nc1cccnc1-c1cccc(F)c1)NC1c2ccccc2-c2ccccc21 [Compound 75, 1-(9H-fluoren-9-yl)-3-[2-(3-fluorophenyl)pyridin-3-yl]urea] | 190 nM |
| O=C(Nc1cccnc1-c1ccccc1F)NC1c2ccccc2-c2ccccc21 [Compound 76, 1-(9H-fluoren-9-yl)-3-[2-(2-fluorophenyl)pyridin-3-yl]urea] | 320 nM |
| Cc1ccccc1-c1ncccc1NC(=O)NC1c2ccccc2-c2ccccc21 [Compound 77, 1-(9H-fluoren-9-yl)-3-[2-(2-methylphenyl)pyridin-3-yl]urea] | 1200 nM |
| Cc1nc(NC(=O)NC2c3ccccc3-c3ccccc32)n(-c2ccccc2)n1 [Compound 78, 1-(9H-fluoren-9-yl)-3-(3-methyl-1-phenyl-1H-1,2,4-triazol-5-yl)urea] | 520 nM |
| Cn1ncnc1-c1cccc(NC(=O)NC2c3ccccc3-c3ccccc32)c1 [Compound 79, 1-(9H-fluoren-9-yl)-3-[3-(1-methyl-1H-1,2,4-triazol-5-yl)phenyl]urea] | 73 nM |
| O=C(Nc1ccnc(-c2ccccc2)c1)NC1c2ccccc2-c2ccccc21 [Compound 80, 1-(9H-fluoren-9-yl)-3-(2-phenylpyridin-4-yl)urea] | 670 nM |
| Cc1nc(-c2ccccc2)c(NC(=O)NC2c3ccccc3-c3ccccc32)o1 [Compound 81, 1-(9H-fluoren-9-yl)-3-(2-methyl-4-phenyl-1,3-oxazol-5-yl)urea] | 3900 nM |
| Cn1ccnc1-c1cncc(NC(=O)NC2c3ccccc3-c3ccccc32)c1 [Compound 82, 1-(9H-fluoren-9-yl)-3-[5-(1-methyl-1H-imidazol-2-yl)pyridin-3-yl]urea] | 260 nM |
| O=C(Nc1cccnc1-n1cccn1)NC1c2ccccc2-c2ccccc21 [Compound 83, 1-(9H-fluoren-9-yl)-3-[2-(1H-pyrazol-1-yl)pyridin-3-yl]urea] | 3000 nM |
| O=C(Nc1cc(F)cnc1-c1ccccc1)NC1c2ccccc2-c2ccccc21 [Compound 84, 1-(9H-fluoren-9-yl)-3-(5-fluoro-2-phenylpyridin-3-yl)urea] | 47 nM |
